In ChEMBL document CHEMBL3044959, “Feeding deterrents from Aconitum episcopale roots against the red flour beetle, Tribolium castaneum” (J Agric Food Chem, 2011):

Experiments:
[1] = tested on: Tribolium castaneum; test: Feeding deterrent activity against Tribolium castaneum (red flour beetle) adults using wheat flour assessed as consumption of diet at 300 ppm measured after 3 days relative to untreated control; type: functional
[2] = tested on: Tribolium castaneum; test: Feeding deterrent activity against Tribolium castaneum (red flour beetle) adults using wheat flour assessed as consumption of diet at 1000 ppm measured after 3 days relative to untreated control; type: functional
[3] = tested on: Tribolium castaneum; test: Feeding deterrent activity against Tribolium castaneum (red flour beetle) adults using wheat flour assessed as consumption of diet at 10 ppm measured after 3 days relative to untreated control; type: functional
[4] = tested on: Tribolium castaneum; test: Feeding deterrent activity against Tribolium castaneum (red flour beetle) adults using wheat flour assessed as consumption of diet at 30 ppm measured after 3 days relative to untreated control; type: functional
[5] = tested on: Tribolium castaneum; test: Feeding deterrent activity against Tribolium castaneum (red flour beetle) adults using wheat flour assessed as consumption of diet at 100 ppm measured after 3 days relative to untreated control; type: functional
[6] = tested on: Tribolium castaneum; test: Feeding deterrent activity against Tribolium castaneum (red flour beetle) adults using wheat flour assessed as inhibition of insect feeding measured after 3 days; type: functional, organism-based
[7] = Toxicity in ip dosed Mus musculus (mouse); type: organism-based; details: in vivo
[8] = Toxicity in iv dosed Mus musculus (mouse); type: organism-based; details: in vivo
[9] = Toxicity in po dosed Mus musculus (mouse); type: organism-based; details: in vivo

SMILES	Activity [1]	Activity [2]	Activity [3]	Activity [4]	Activity [5]	EC50 [6]	LD50 [7]	LD50 [8]	LD50 [9]
CCN1C[C@]2(COC)CC[C@H](OC)[C@]34C1[C@H]([C@H](OC)[C@H]23)[C@@]1(O)C[C@H](OC)[C@H]2C[C@@H]4[C@@H]1[C@H]2O [CHASMANINE]	69.59%	53.29%	90.55%	72.47%	61.64%				
CC(=O)O[C@@H]1C[C@H](O)[C@@]23CO[C@@H](O)[C@]1(C)[C@@H]2C[C@@H](O)[C@]1(C)[C@@H]3C(=O)[C@H](OC(C)=O)[C@@]2(C)[C@H](c3ccoc3)C[C@H]3O[C@]321 [TOOSENDANIN]						94.3 ppm			
CCN1C[C@]2(COC)CC[C@H](OC)[C@]34C1[C@H]([C@H](OC)[C@H]23)[C@@]1(OC(C)=O)C[C@H](OC)[C@@]2(O)C[C@@H]4[C@@H]1[C@H]2OC(=O)c1ccc(OC)cc1 [CRASSICAULINE A]	53.83%	39.59%	97.81%	89.73%	78.36%	1134.5 ppm			
CCN1C[C@]2(COC)CC[C@H](OC)[C@]34C1[C@H](C[C@H]23)[C@@]1(O)C[C@H](OC)[C@H]2C[C@@H]4[C@@H]1[C@H]2O [TALATISAMINE]	58.63%	48.77%	92.47%	75.89%	60.82%	342.8 ppm			
CCN1C[C@]2(C)CC[C@H](O)[C@@]34C5C[C@@H]6[C@@H](OC)C[C@@](O)(C5[C@H]6O)[C@@H](CC23)C14 (some centres not stated) [KARACOLINE]	54.66%	43.84%	92.96%	77.95%	65.07%	395.2 ppm	298 mg/kg	51.5 mg/kg	
CCN1C[C@]2(C)CC[C@H](OC)[C@]34C1[C@H](C[C@H]23)[C@@]1(O)C[C@H](OC)[C@H]2C[C@@H]4[C@@H]1[C@H]2O [SACHACONITINE]	53.7%	38.08%	93.97%	71.78%	62.19%	427.8 ppm			
CCN1C[C@]2(COC)[C@H](O)C[C@H](OC)[C@]34C1[C@H]([C@H](OC)[C@H]23)[C@@]1(OC(C)=O)C[C@H](OC)[C@@]2(O)C[C@@H]4[C@@H]1[C@H]2OC(=O)c1ccc(OC)cc1 [YUNACONITINE]			96.75%	85.48%	68.37%	654.3 ppm			2.97 mg/kg
